The values that follow come from US12291517B2, “Crystalline form of 6-(cyclopropanecarboxamido)-4-((2-methoxy-3-(1-methyl-1H-1,2,4-triazol-3-yl)phenyl)amino)-n-(methyl-D3) pyridazine-3-carboxamide” (Bristol-Myers Squibb Company, priority 2018, dated 2025).

Like-named read-outs stand apart in the source and are kept apart here.

Series [1] is described as follows: Micro-dissolution comparative study of potential salts (pH transfer model). In kind it is physicochemical. Details: AUC pH 2-6.5 Mean / AUC pH 6-6.5 Mean: unit not given beside the values. Particulars: for pH-effect Ratio: AUC pH 6-6.5 over AUC pH 2-6.5.
Series [2] in a line: Dog PK study, pH effect of free base vs. HCl salt. In kind it is in vivo. Particulars: for BA Mean / Cmax / Tmax / AUC(0-t): dog, capsule, 10 mg (1 mpk), famotidine treated (Famo); for Cmax / Tmax / AUC(0-t): in vivo, po, 1 mg/kg; for AUC(0-t): read-out: AUC0-24 h Mean. From the text: In famotidine treated dogs, the mean bioavailability of the HCl salt is 60% higher than the free base.

Series [3] can be described thus: Dog PK study, pH effect of free base vs. HCl salt. The format is in vivo. Conditions: capsule, 10 mg (1 mpk), Penta.
A short description of series [4]: Moisture sorption isotherm. The format is physicochemical. How it is done: Moisture sorption isotherms were collected in a TA Instrument VTI-SA+Vapor Sorption Analyzer using approximately 10 mg of sample. The sample was dried at 60° C. until the loss rate of 0.0005 wt %/min was obtained for 10 minutes. The sample was tested at 25° C. and 3 or 4, 5, 15, 25, 35, 45, 50, 65, 75, 85, and 95% RH. Equilibration at each RH was reached when the rate of 0.0003 wt %/min for 35 minutes was achieved or a maximum of 600 minutes.

The nature of series [5]: Physical and chemical stability of Form B on storage at different temperature and humidity. The format is physicochemical.
Test in series [6]: as above
The format is physicochemical. How it is done:
Samples of Form B of Compound (I) were stored at different conditions of temperature and humidity for 4 weeks. The physical stability, characterized by DSC, TGA, and PXRD, were measured at 2 and 4 weeks.
The source holds these as a separate data set.

For `CS(=O)(=O)O.[2H]C([2H])([2H])NC(=O)c1nnc(NC(=O)C2CC2)cc1Nc1cccc(-c2ncn(C)n2)c1OC` [MSA salt], in series [1], the “pH-effect Ratio” value amounted to 0.45, the “AUC pH 2-6.5 Mean” value turned out to be 12045.08 and the “AUC pH 6-6.5 Mean” value worked out at 5368.76.
In the case of `[2H]C([2H])([2H])NC(=O)c1nnc(NC(=O)C2CC2)cc1Nc1cccc(-c2ncn(C)n2)c1OC` [Compound (I), 6-(cyclopropanecarboxamido)-4-((2-methoxy-3-(1-methyl-1H-1,2,4-triazol-3-yl)phenyl)amino)-N-(methyl-d3)pyridazine-3-carboxamide], in series [2], the “BA Mean” value was determined as 85.44%, the Cmax came to 62.8 ng/mL, the Tmax stood at 3.5 h and the AUC(0-t) was determined as 586 ng·h/mL. Further, in series [3], the “BA Mean” value was found to be 100.00%. Moreover, in series [3] (in vivo, po, 1 mg/kg), the Cmax turned out to be 122 ng/mL and the Tmax was 2.5 h. Moreover, in series [3] (in vivo, po, 1 mg/kg, read-out: AUC0-24 h Mean), the AUC(0-t) was 975 ng·h/mL. In series [1], the “pH-effect Ratio” value is reported as 0.27, the “AUC pH 2-6.5 Mean” value was determined as 6094.11 and the “AUC pH 6-6.5 Mean” value was determined as 1640.60.
For the compound `Cl.[2H]C([2H])([2H])NC(=O)c1nnc(NC(=O)C2CC2)cc1Nc1cccc(-c2ncn(C)n2)c1OC` [Form B of Compound (I), 6-(cyclopropanecarboxamido)-4-((2-methoxy-3-(1-methyl-1H-1,2,4-triazol-3-yl)phenyl)amino)-N-(methyl-d3)pyridazine-3-carboxamide HCl salt], the Hygroscopicity entry in series [4] is reported as “non-hygroscopic”. Moreover, the Moisture uptake result in series [4] (between 25 to 75% relative humidity at 25° C.) is listed as “less than 0.5%”. Also, in series [2], the “BA Mean” value was found to be 160.90%. Further, in series [2], the Cmax was 180 ng/mL. For the same compound, the Tmax in series [2] amounted to 2 h. In addition, the AUC(0-t) in series [2] amounted to 1340 ng·h/mL. Moreover, the “Mean bioavailability higher than the free base” value in series [2] (famotidine treated dogs, 1 mpk) stood at 60%. Further, the “% Assay” value in series [5] (5° C., 1 Month, corrected for water and total volatiles) amounted to 100.3%; in series [5] (5° C., 2 weeks), 98.31%; in series [5] (5° C., 3 Months, corrected for water and total volatiles) it was 100.9%; in series [5] (5° C., 4 weeks) it was 98.40%; in series [5] (5° C., 6 Months, corrected for water and total volatiles) it was 100.3%; in series [5] (5° C., 12 Months, corrected for water and total volatiles), 100.2%. Besides, the “% Assay” value in series [5] (25° C./60% RH (closed), 1 Month, corrected for water and total volatiles) came to 98.8%; in series [5] (25° C./60% RH (closed), 3 Months, corrected for water and total volatiles), 100.9%; in series [5] (25° C./60% RH (closed), 4 weeks), 98.39%; in series [5] (25° C./60% RH (closed), 6 Months, corrected for water and total volatiles), 99.4%; in series [5] (25° C./60% RH (closed), 12 Months, corrected for water and total volatiles), 99.9%; in series [5] (40° C./75% RH (open), 1 Month, corrected for water and total volatiles), 99.8%. Also, the “% Assay” value came out at 98.29% in series [5] (40° C./75% RH (open), 2 weeks); 98.7% in series [5] (40° C./75% RH (open), 3 Months, corrected for water and total volatiles); 101.0% in series [5] (40° C./75% RH (open), 6 Months, corrected for water and total volatiles); 100.3% in series [5] (40° C./75% RH (open), 12 Months, corrected for water and total volatiles); 98.32% in series [5] (50° C., 2 weeks); 98.44% in series [5] (HIL/UV, 2 weeks). In addition, the “% Assay” value is reported as 99.9% in series [5] (−20° C., 1 Month, corrected for water and total volatiles); 98.32% in series [6] (5° C. (control), 2 weeks); 98.26% in series [6] (25° C./60% RH (closed), 2 weeks); 98.37% in series [6] (40° C./75% RH (open), 4 weeks); 98.40% in series [6] (50° C., 4 weeks); 98.44% in series [6] (HIL/UV, 4 weeks). Besides, the “Physical stability (physical form)” value in series [5] (by DSC, TGA and PXRD at 2 and 4 weeks, different temperature and humidity conditions) is “No change in the physical form was detected”. Besides, the “Physical or chemical degradation” value in series [5] (tested temperature and humidity conditions) was “no significant physical or chemical degradation”. In series [1], the “pH-effect Ratio” value stood at 0.61. Besides, the “Mitigation of the pH effect” value in series [1] (comparison of salts) was “mitigates the pH effect better than MSA and sulfate (SO4) salts”. In addition, the “AUC pH 2-6.5 Mean” value in series [1] is reported as 12345.28. Further, the “AUC pH 6-6.5 Mean” value in series [1] was determined as 7492.66. For the same compound, the Chemical stability result in series [6] (storage conditions of Table 3, up to 4 weeks) is recorded as “no measure change in chemical stability”.
